Measured values: PubChem BioAssay (NCI)
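Cells were grown in 96-well plates and exposed to each compound for 48 hours at five concentrations; endpoints were interpolated linearly between bracketing concentrations, or set to the highest concentration if not reached. TGI: concentration producing complete growth inhibition.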

Columns and labels:
Assay in all cases: growth of human tumour cells (NCI), 48 h
HOP-62 NSCLC = tested on: HOP-62 NSCLC
TK-10 renal = tested on: TK-10 renal
SN12C renal = tested on: SN12C renal
SW-620 colon = tested on: SW-620 colon
EKVX NSCLC = tested on: EKVX NSCLC
HOP-18 NSCLC = tested on: HOP-18 NSCLC
MOLT-4 leukemia = tested on: MOLT-4 leukemia
SNB-78 CNS = tested on: SNB-78 CNS
DMS 273 small cell lung = tested on: DMS 273 small cell lung
OVCAR-8 ovarian = tested on: OVCAR-8 ovarian
MDA-MB-231 breast = tested on: MDA-MB-231 breast

SMILES: Cc1cccc(C)c1NC(=O)CCCC(=O)C1/C(=N/NC(=O)CC#N)CCC/C1=N\NC(=O)CC#N (configuration not stated)
- TGI (HOP-62 NSCLC): > 100 µM
- TGI (TK-10 renal): > 100 µM
- TGI (SN12C renal): > 100 µM
- TGI (SW-620 colon): > 100 µM
- TGI (EKVX NSCLC): > 100 µM
- TGI (HOP-18 NSCLC): > 100 µM
- TGI (MOLT-4 leukemia): > 100 µM
- TGI (SNB-78 CNS): > 100 µM
- TGI (DMS 273 small cell lung): > 100 µM
- TGI (OVCAR-8 ovarian): > 100 µM

SMILES: S=c1sc2c(n1-c1ccccc1)NC=NC2S (configuration not stated)
- TGI (HOP-62 NSCLC): > 100 µM
- TGI (TK-10 renal): > 100 µM
- TGI (SN12C renal): > 100 µM
- TGI (SW-620 colon): > 100 µM
- TGI (EKVX NSCLC): > 100 µM
- TGI (HOP-18 NSCLC): 92.1 µM
- TGI (MOLT-4 leukemia): > 100 µM
- TGI (SNB-78 CNS): > 100 µM
- TGI (DMS 273 small cell lung): > 100 µM
- TGI (OVCAR-8 ovarian): > 100 µM

SMILES: CC(=O)NNc1nc(C)c(C(=O)/C=C/c2ccc(NC(C)=O)cc2)s1
- TGI (HOP-62 NSCLC): > 100 µM
- TGI (TK-10 renal): > 100 µM
- TGI (SN12C renal): > 100 µM
- TGI (SW-620 colon): > 100 µM
- TGI (EKVX NSCLC): > 100 µM
- TGI (HOP-18 NSCLC): > 100 µM
- TGI (MOLT-4 leukemia): > 100 µM
- TGI (SNB-78 CNS): > 100 µM
- TGI (DMS 273 small cell lung): > 100 µM
- TGI (OVCAR-8 ovarian): > 100 µM

SMILES: O=C(Nc1ccccc1-c1nn(C(=S)Nc2ccccc2)c(=S)n(C(=S)Nc2ccccc2)c1=O)C(F)(F)F
- TGI (HOP-62 NSCLC): > 100 µM
- TGI (TK-10 renal): > 96.3 µM
- TGI (SN12C renal): > 100 µM
- TGI (SW-620 colon): > 64.7 µM
- TGI (EKVX NSCLC): 98.2 µM
- TGI (HOP-18 NSCLC): > 100 µM
- TGI (MOLT-4 leukemia): > 77.1 µM
- TGI (SNB-78 CNS): > 100 µM
- TGI (DMS 273 small cell lung): > 100 µM
- TGI (OVCAR-8 ovarian): > 90.3 µM

SMILES: CC(C)(C)c1cc2ccc(C(N)=O)cc2c(=O)[nH]1
- TGI (HOP-62 NSCLC): > 100 µM
- TGI (TK-10 renal): > 100 µM
- TGI (SN12C renal): > 100 µM
- TGI (SW-620 colon): > 100 µM
- TGI (EKVX NSCLC): > 100 µM
- TGI (HOP-18 NSCLC): > 100 µM
- TGI (MOLT-4 leukemia): > 100 µM
- TGI (SNB-78 CNS): > 100 µM
- TGI (DMS 273 small cell lung): > 100 µM
- TGI (OVCAR-8 ovarian): > 100 µM

SMILES: CC(=O)OCCOCNC(=S)N/N=C(\C)c1cnccn1
- TGI (HOP-62 NSCLC): > 100 µM
- TGI (TK-10 renal): > 100 µM
- TGI (SN12C renal): > 100 µM
- TGI (SW-620 colon): > 100 µM
- TGI (EKVX NSCLC): > 100 µM
- TGI (HOP-18 NSCLC): 97.5 µM
- TGI (MOLT-4 leukemia): > 100 µM
- TGI (SNB-78 CNS): > 100 µM
- TGI (DMS 273 small cell lung): 67 µM
- TGI (OVCAR-8 ovarian): > 100 µM

SMILES: CN(C)CC1CC/C(=C\c2ccc(O)cc2)C1=O (configuration not stated)
- TGI (HOP-62 NSCLC): 33.6 µM
- TGI (TK-10 renal): 9.01 µM
- TGI (SN12C renal): 14 µM
- TGI (SW-620 colon): 5.33 µM
- TGI (EKVX NSCLC): 14.4 µM
- TGI (HOP-18 NSCLC): 15.9 µM
- TGI (MOLT-4 leukemia): 5.29 µM
- TGI (SNB-78 CNS): 17.9 µM
- TGI (MDA-MB-231 breast): 9.22 µM
- TGI (DMS 273 small cell lung): 9.68 µM
- TGI (OVCAR-8 ovarian): 14.6 µM

SMILES: Cc1ccc(Oc2ccc(C)cc2N)cc1
- TGI (HOP-62 NSCLC): > 100 µM
- TGI (TK-10 renal): > 100 µM
- TGI (SN12C renal): > 100 µM
- TGI (SW-620 colon): > 100 µM
- TGI (EKVX NSCLC): > 100 µM
- TGI (HOP-18 NSCLC): > 100 µM
- TGI (MOLT-4 leukemia): > 100 µM
- TGI (SNB-78 CNS): > 100 µM
- TGI (DMS 273 small cell lung): > 100 µM
- TGI (OVCAR-8 ovarian): > 100 µM

SMILES: O=C(/C=C/c1ccc(O)cc1)c1ccc(O)cc1
- TGI (HOP-62 NSCLC): 49.1 µM
- TGI (TK-10 renal): > 100 µM
- TGI (SN12C renal): 79 µM
- TGI (SW-620 colon): 57.9 µM
- TGI (EKVX NSCLC): 97.1 µM
- TGI (HOP-18 NSCLC): > 100 µM
- TGI (MOLT-4 leukemia): 82.3 µM
- TGI (SNB-78 CNS): > 100 µM
- TGI (MDA-MB-231 breast): > 100 µM
- TGI (DMS 273 small cell lung): 36.9 µM
- TGI (OVCAR-8 ovarian): 41.6 µM

SMILES: COc1nc(NC2OC(COC(C)=O)C(OC(C)=O)C(OC(C)=O)C2OC(C)=O)c2c(OC(C)=O)cc(=O)oc2n1 (configuration not stated)
- TGI (HOP-62 NSCLC): > 100 µM
- TGI (TK-10 renal): > 100 µM
- TGI (SN12C renal): > 100 µM
- TGI (SW-620 colon): > 100 µM
- TGI (EKVX NSCLC): > 100 µM
- TGI (HOP-18 NSCLC): > 100 µM
- TGI (MOLT-4 leukemia): > 100 µM
- TGI (SNB-78 CNS): > 100 µM
- TGI (DMS 273 small cell lung): > 100 µM
- TGI (OVCAR-8 ovarian): > 100 µM
